From patent US10781185B2, “Heterocyclic compounds for the inhibition of PASK” (BioEnergenix LLC, priority 2009, dated 2020)
Each block holds one molecule with its values, some of them ahead of it.

What was measured:
PASK [1] = target: PASK (Homo sapiens (Human), UniProt Q96RG2); experiment: PAS Kinase FRET Assay; format: biochemical; details: TR-FRET, Ulight-peptide substrate; read-out: IC50 Kinase Domain
Source text: PAS Kinase FRET Assay The aim of the FRET assay is to determine the inhibition potential of test compounds on targeted kinase. This assay platform provides a homogenous screening method for measuring kinase activity by quantitating the amount of phospho-substrate in solution following a kinase reaction. In the presence of kinase and ATP, the Ulight-peptide is phosphorylated and captured by an anti-phospho-substrate antibody, which brings the Eu chelate donor and Ulight acceptor dyes into close proximity. […] The contents of the plate were and incubated at RT for 1 h. The reaction was stopped by adding 5 μl of stop solution to each test well followed by mixing and incubation at RT for 10 minutes. 5 μl of detection mix (detection antibody diluted in detection buffer) was added; the contents of the plate were mixed and then incubated in the dark for 1 hour at RT. […] The results were graphed to calculate the EC50. Titration of ATP at the EC50 concentration of kinase to determine ATP Km,app. was performed using the following method. […] The contents of the plate were and incubated at RT for 1 h. The reaction was stopped by adding 5 μl of stop solution to each test well followed by mixing and incubation at RT for 10 minutes. 5 μl of detection mix (detection antibody diluted in detection buffer) was added; the contents of the plate were mixed and then incubated in the dark for 1 hour at RT. […] The results were graphed to calculate the EC50 as the ATP Km,app. […] If compound is not soluble under this condition, it was diluted to 3 mM. Kinase reaction buffer was prepared containing 10 mM MgCl2, 50 mM HEPES, 1 mM EGTA, 0.01% TWEEN-20, 2 mM DTT. […] As a positive control, 2.5 μl of positive compound was added to assay wells, and 2.5 μl of DMSO to assay wells as vehicle control. Kinase solution was prepared in reaction buffer at 2× final assay concentration. Kinase solution (5 μl) was added to each well of the assay plate. The substrate and ATP solution was prepared in kinase reaction buffer at 4× final assay concentration. The kinase reaction was started by adding 2.5 μl of substrate+ATP mix solution to each well of the assay plate. The plate is mixed on a plate shaker; then covered and allowed to react for 2 hours in the dark at 25° C. without shaking. The reaction was stopped by adding 5 μl of stop solution to each test well followed by mixing and incubation at RT for 10 minutes in the dark. 5 μl of detection mix (detection antibody diluted in detection buffer) was added; the contents of the plate were mixed and then incubated in the dark for 1 hour at RT.

PASK [2] = target: PASK (UniProt # Q96RG2; human recombinant N-terminal GST tagged construct, residues 879-1323) (Homo sapiens (Human), UniProt Q96RG2); experiment: PASK ATP Radiochemical Assay; format: biochemical; details: 33P-ATP radiochemical, Myelin Basic Protein substrate; read-out: IC50 Kinase Domain
Procedure: PASK ATP Radiochemical Assay
Test compounds in DMSO are then added and the mixture, followed by delivery of ^33P-ATP (specific activity 0.01 μCi/μl final) to initiate the reaction. […] The entire reaction mixture is washed through onto a P81 Phosphocellulose paper and washed three times for 10 minutes in 75 mM phosphoric acid and once in methanol prior to drying and scintillation counting.

[3] = system: Sprague Dawley rats on a high fructose diet; experiment: Rat High Fructose Model with Fast/Re-Feed; format: in vivo; details: for body weight change relative to the Vehicle group: FIG. 1; for decrease in plasma glucose compared to vehicle / reduction in plasma insulin levels: after fast and re-feed
Procedure: Rat High Fructose Model with Fast/Re-Feed
Another standard model of human hyperlipidemia and insulin resistance is the rat fed a high fructose diet for several weeks (33). Additionally, since hepatic lipid synthesis is known to be regulated by food consumption, the fast/reefed cycle of Horton et al. (32) was incorporated into the chronic high fructose diet model. A compound disclosed above was evaluated in this model as an agent to restore insulin sensitivity and lower blood lipids.
Eight week old male Sprague Dawley rats were purchased from Harlan, Inc. The rats weighed 200-225 g upon arrival and were divided into groups as detailed in Table 2 and were immediately placed on a high fructose diet (60% kcal fructose; Open Source Diet # D00111301) ad libitum for three weeks. During the last week of feeding the high fructose diet, the rats were dosed with vehicle (5% solutol, 8% β cyclo-dextrin), subject compound at 30 mg/kg or 100 mg/kg or the control compound at 30 mg/kg by oral gavage once daily for 7 days. On the final day, all animals were placed on a […] followed by a 12 hour re-feed period on the high fructose diet ad libitum.
(§1) Body weights were monitored throughout the protocol. After completing the fast or fast/re-feed conditions, the rats were given avertin for anesthesia by intraperitoneal administration. Whole blood was collected by cardiac puncture and the rats were terminated by cervical dislocation. Livers were collected surgically, weighed and immediately frozen in liquid nitrogen. The blood was placed in Li-heparin treated tubes, centrifuged to collect plasma and the plasma frozen.
The plasma was analyzed by standard colorimetric assays for glucose, insulin, triglycerides and cholesterol.

[4] = system: C57Bl6 mice fed a high fat diet; experiment: Mouse High Fat Dietary Model with fast/re-feed; format: in vivo; details: for reduction in body weight vs vehicle: fast/re-feed mice
Procedure: Mouse High Fat Dietary Model
A standard model of human hyperlipidemia and insulin resistance is the mouse fed a high fat diet for several weeks (31, 33). Additionally, since hepatic lipid synthesis is known to be regulated by food consumption, the fast/re-feed cycle of Horton et al. (32) was incorporated into the chronic high fat diet model. The compound was evaluated in this model as an agent to restore insulin sensitivity and lower blood lipids. The chronic high fat diet was fed to mice to simulate a standard Western diet which is elevated in calories from high fat and carbohydrate intake. This and similar models of dietary induced obesity, insulin insensitivity and elevated serum lipids and cholesterol are used as mouse and rat models of human pathology including hyperlipidemia, type II diabetes, atherosclerosis, obesity, cardiovascular and liver disease. These models have been used as excellent predictors of efficacy in human clinical trials (PPAR and FXR agonists).
The farnesoid X receptor (FXR) is a ligand-activated transcription factor and a member of the nuclear receptor superfamily. […] While the mechanism of action of FXR agonists is clearly distinct from PASK inhibition, WAY-362450 has been used as a positive control compound producing physiologically beneficial changes in glucose and lipid metabolism resembling inhibition of PASK. Throughout these in vivo assays, WAY-362450 has been used as a control compound, and will be referred to as such.
Male C57Bl6 mice were obtained from Jackson Laboratories and had been fed a high fat diet (60% kcal fat) for eight weeks. The mice were fed an identical high fat diet (Research Diet D12492) upon arrival and during the study. All mice were treated with the subject compound at 30 or 100 mg/kg, control compound (WAY-362450) at 30 mg/kg or vehicle by oral gavage daily for three days. On the final day, 10 animals from each group began an 24 hour fast and then were sacrificed (fasted groups 1a,2a,3a,4a). Alternatively, 10 animals from each group underwent a 24 hour fast followed by a 12 hour re-feed period with the same high fat diet ad libitum and then were sacrificed (re-fed groups 1b,2b,3b,4b).
as §1, with “at the start and end of” for “throughout”, “mice” for “rats”
The plasma was analyzed by standard colorimetric assays for glucose, insulin, triglycerides and cholesterol. Frozen liver samples were pulverized and extracted in ethanolic KOH and analyzed for liver triglycerides and cholesterol.

[5] = 30 mg/kg oral gavage once daily for 7 days
[6] = 30 mg/kg oral gavage daily for three days
[7] = fasted and re-fed mice, 30 mg/kg
[8] = fasted only mice, 30 mg/kg oral gavage daily for three days

Sequence of PASK (UniProt # Q96RG2; human recombinant N-terminal GST tagged construct, residues 879-1323) (Homo sapiens (Human), UniProt Q96RG2) (Q96RG2 879-1323, change not shown): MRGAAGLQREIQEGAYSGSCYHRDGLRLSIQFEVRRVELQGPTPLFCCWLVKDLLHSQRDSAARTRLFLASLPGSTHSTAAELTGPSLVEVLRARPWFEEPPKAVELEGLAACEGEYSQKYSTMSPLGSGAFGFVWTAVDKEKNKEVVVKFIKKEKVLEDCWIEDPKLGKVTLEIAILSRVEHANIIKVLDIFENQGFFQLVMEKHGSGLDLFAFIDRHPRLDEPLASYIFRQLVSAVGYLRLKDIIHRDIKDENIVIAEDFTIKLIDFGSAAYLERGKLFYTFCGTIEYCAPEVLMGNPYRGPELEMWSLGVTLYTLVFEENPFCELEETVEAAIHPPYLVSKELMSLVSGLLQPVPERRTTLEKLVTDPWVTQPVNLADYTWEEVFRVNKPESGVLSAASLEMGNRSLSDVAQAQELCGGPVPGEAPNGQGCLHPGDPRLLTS
Sequence of PASK (Homo sapiens (Human), UniProt Q96RG2) (Q96RG2 999-1251): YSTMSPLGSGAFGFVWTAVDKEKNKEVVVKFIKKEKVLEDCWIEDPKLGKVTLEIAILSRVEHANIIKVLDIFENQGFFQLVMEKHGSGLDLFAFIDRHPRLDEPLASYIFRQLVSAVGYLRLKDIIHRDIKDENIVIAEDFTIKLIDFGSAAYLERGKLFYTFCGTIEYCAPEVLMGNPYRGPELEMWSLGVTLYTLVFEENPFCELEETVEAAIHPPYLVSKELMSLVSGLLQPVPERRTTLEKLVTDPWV

SMILES: CC(C)N(C)c1nc2cc(C(=O)O)ccc2nc1-c1ccc2c(c1)OCO2 [Example 77, 2-(Benzo[d][1,3]dioxol-5-yl)-3-(isopropyl(methyl)amino)quinoxaline-6-carboxylic acid]
IC50 (PASK [1]): ≤ 10 µM
IC50 (PASK [2]): < 10 µM

SMILES: COCC1CCCN(c2nc3cc(C(=O)O)ccc3nc2-c2ccc(F)cc2)C1 (stereo not shown) [Example 78, 2-(4-Fluorophenyl)-3-(3-(methoxymethyl)piperidin-1-yl)quinoxaline-6-carboxylic acid]
IC50 (PASK [1]): ≤ 10 µM
IC50 (PASK [2]): < 10 µM

SMILES: CC1(C)CCCN(c2nc3cc(C(=O)O)ccc3nc2-c2ccc(F)cc2)C1 [Example 79, 3-(3,3-Dimethylpiperidin-1-yl)-2-(4-fluorophenyl)quinoxaline-6-carboxylic acid]
IC50 (PASK [1]): ≤ 10 µM
IC50 (PASK [2]): < 10 µM

SMILES: CC1CCCN(c2nc3cc(C(=O)O)ccc3nc2-c2ccc(F)cc2)C1 (stereo not shown) [Example 80, 2-(4-Fluorophenyl)-3-(3-methylpiperidin-1-yl)quinoxaline-6-carboxylic acid]
IC50 (PASK [1]): ≤ 10 µM
IC50 (PASK [2]): < 10 µM

SMILES: CC(C)N(C)c1nc2cc(C(=O)O)ccc2nc1-c1ccc2c(c1)OCCO2 [Example 81, 2-(2,3-Dihydrobenzo[b][1,4]dioxin-6-yl)-3-(isopropyl(methyl)amino)quinoxaline-6-carboxylic acid]
IC50 (PASK [1]): ≤ 10 µM
IC50 (PASK [2]): < 10 µM

SMILES: CC(C)OC(=O)C1=CN(C(=O)c2ccc(F)c(F)c2)CC(C)(C)c2c1[nH]c1ccccc21 [WAY-362450, reference compound]
body weight change relative to the Vehicle group [3, 5]: significant increase in body weight
increase in plasma cholesterol vs vehicle ([3]; 30 mg/kg, 7 days): 17%
reduction in plasma triglycerides vs vehicle ([3]; 30 mg/kg, 7 days): 68%
decrease in plasma glucose compared to vehicle ([3]; 30 mg/kg, 7 days): did not alter plasma glucose concentrations
reduction in plasma insulin levels ([3]; 30 mg/kg, 7 days): 63.2%
effects on liver weight ([4]; 30 mg/kg): identical to those of the subject compound at the same dose
increase in plasma glucose vs vehicle ([4]; fast and re-feed mice, 30 mg/kg): 7.6%
reduction in body weight vs vehicle [4, 6]: 6.5%
decrease in plasma insulin vs vehicle [4, 7]: 22%
decrease in plasma glucose vs vehicle ([4]; fasted only mice, 30 mg/kg): 19%
decrease in plasma insulin vs vehicle ([4]; fasted only mice, 30 mg/kg): 39%
decrease in body weight vs vehicle [4, 8]: 4%

SMILES: CC(C)N(C)c1nc2cc(C(=O)O)ccc2nc1-c1ccc(F)cc1 [subject compound]
body weight change relative to the Vehicle group [3, 5]: modest increase in body weight
decrease in plasma cholesterol vs vehicle ([3]; 30 mg/kg, 7 days): 5.7%
reduction in plasma triglycerides vs vehicle ([3]; 30 mg/kg, 7 days): 25.1%
decrease in plasma glucose compared to vehicle ([3]; 30 mg/kg, 7 days): 21.5%
reduction in plasma insulin levels ([3]; 30 mg/kg, 7 days): 15.4%
body weight change relative to the Vehicle group ([3]; 100 mg/kg oral gavage once daily for 7 days): modest decrease in body weight
decrease in plasma cholesterol vs vehicle ([3]; 100 mg/kg, 7 days): 10%
maximal reduction in liver weight ([3]; 100 mg/kg, 7 days): about 4%
reduction in plasma triglycerides vs vehicle ([3]; 100 mg/kg, 7 days): 54.3%
decrease in plasma glucose compared to vehicle ([3]; 100 mg/kg, 7 days): 26.3%
reduction in plasma insulin levels ([3]; 100 mg/kg, 7 days): 31.4%
reduction in liver weight ([4]; 30 and 100 mg/kg, trend of dose dependent reductions): 7-9%
decrease in plasma glucose vs vehicle ([4]; fast and re-feed mice, highest dose 100 mg/kg): up to 21%
reduction in body weight vs vehicle [4, 6]: 2.7%
reduction in body weight vs vehicle ([4]; 100 mg/kg oral gavage daily for three days): 5.1%
decrease in plasma insulin vs vehicle [4, 7]: 10%
decrease in plasma insulin vs vehicle ([4]; fasted and re-fed mice, 100 mg/kg): 28%
decrease in plasma glucose vs vehicle ([4]; fasted only mice, 30 mg/kg): 30%
decrease in body weight vs vehicle [4, 8]: 1.8%
decrease in plasma glucose vs vehicle ([4]; fasted only mice, 100 mg/kg): 43%
decrease in body weight vs vehicle ([4]; fasted only mice, 100 mg/kg oral gavage daily for three days): 5.1%
decrease in plasma insulin vs vehicle ([4]; fasted only mice, 30 and 100 mg/kg): up to 26%

Next, values leading:

IC50 (PASK [1]): ≤ 10 µM
IC50 (PASK [2]): < 10 µM
SMILES: C[C@H]1CCCN1c1nc2cc(C(=O)O)ccc2nc1-c1ccc2c(c1)OCO2 [Example 83, 2-(Benzo[d][1,3]dioxol-5-yl)-3-((S)-2-methylpyrrolidin-1-yl)quinoxaline-6-carboxylic acid]

IC50 (PASK [1]): ≤ 10 µM
IC50 (PASK [2]): < 10 µM
SMILES: CC(C)N(C)c1nc2cc(C(=O)O)ccc2nc1-c1ccc2[nH]ccc2c1 [Example 84, 2-(1H-Indol-5-yl)-3-(isopropyl(methyl)amino)quinoxaline-6-carboxylic acid]

IC50 (PASK [1]): ≤ 10 µM
IC50 (PASK [2]): < 10 µM
SMILES: CC(C)N(C)c1nc2cc(C(=O)O)ccc2nc1-c1ccncc1 [Example 87, 3-(Isopropyl(methyl)amino)-2-(pyridin-4-yl)quinoxaline-6-carboxylic acid]

IC50 (PASK [1]): ≤ 10 µM
IC50 (PASK [2]): < 10 µM
SMILES: CC(C)N(C)c1nc2cc(C(=O)O)ccc2nc1-c1cc2ccccc2o1 [Example 89, 2-(Benzofuran-2-yl)-3-(isopropyl(methyl)amino)quinoxaline-6-carboxylic acid]
